For one data set, the target named is T1, hDP/Gqs5 (Homo sapiens, UniProt Q13258).
T1 construct: expressed in transfected cells; host or cells: HEK-293(EBNA) cells
T1 sequence (Q13258 1-359): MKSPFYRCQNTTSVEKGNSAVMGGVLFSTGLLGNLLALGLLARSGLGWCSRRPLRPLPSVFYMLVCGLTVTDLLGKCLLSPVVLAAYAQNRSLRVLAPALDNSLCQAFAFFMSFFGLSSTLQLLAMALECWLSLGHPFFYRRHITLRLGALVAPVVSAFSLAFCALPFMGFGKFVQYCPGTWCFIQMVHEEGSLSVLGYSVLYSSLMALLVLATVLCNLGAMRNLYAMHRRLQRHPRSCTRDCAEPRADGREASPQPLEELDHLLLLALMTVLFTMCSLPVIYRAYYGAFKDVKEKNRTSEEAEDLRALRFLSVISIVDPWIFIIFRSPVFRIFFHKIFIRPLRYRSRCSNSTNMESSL
Kind of data set: FLIPR calcium signal, HEK-293(EBNA) cells. The class given is cell-based.

Data set [1] concerns laser-induced hypertensive monkeys. Kind of data set: Intraocular pressure (IOP) in laser-induced hypertensive monkeys. The class given is in vivo, monkey. The settings on record: Primates, topical, 0.1%, one single day dose, read-out: maximum IOP decrease from baseline (percent). The protocol: (§1) (Z)-7-[(1R,2S,3R,5R)-5-Chloro-2-(3,5-dichloro-phenoxymethyl)-3-hydroxy-cyclopentyl]-hept-5-enoic acid (15b) was tested at multiple concentrations in normotensive dogs, dosing once daily for 5 days. At 0.05%, the maximum IOP decrease from baseline was 4.3 mmHg (30%) at 6 h; the maximum OSH score was 0.6 at 6 h. […] This compound was also tested in laser-induced hypertensive monkeys, using one single day dose. At 0.1%, the maximum IOP decrease from baseline was 6 mmHg (19%) at 6 h.
(§2) (Z)-7-[(1R,2S,3R,5R)-5-Chloro-2-(3,5-dichloro-phenoxymethyl)-3-hydroxy-cyclopentyl]-hept-5-enoic acid isopropyl ester (42b) was tested in normotensive dogs at 0.05%, dosing once daily for 5 days. The maximum intraocular pressure (IOP) decrease from baseline was 3 mmHg (19%) at 6 h; the maximum ocular surface hyperemia (OSH) score was 0.6 at 74 h. This compound was also tested in laser-induced hypertensive monkeys, using one single day dose. At 0.01%, the maximum IOP decrease from baseline was 6 mmHg (16%) at 6 h.

Data set [2] relates to normotensive dogs. Kind of data set: Ocular surface hyperemia (OSH) in normotensive dogs. The data set is classed as in vivo, dog. The settings on record: dosing once daily for 5 days. The arrangement: maximum OSH score: scale not given here. The protocol:
as §1, §2

Data set [3] relates to normotensive dogs. Put plainly: Intraocular pressure (IOP) in normotensive dogs. The data set is classed as in vivo, dog. The note with it: Canis lupus familiaris, topical, 120 h, dosing once daily for 5 days, read-out: maximum IOP decrease from baseline (percent). The protocol: as §1, §2
The mark [4] stands for this setting: Table 1, first part, triplicate, read-out: functional data (EC50) hDP.
The mark [5] stands for this setting: Table 1, second part, quantity not given, values match functional data (EC50) of first part, read-out: Other Receptors hDP.

Molecules are shown by their SMILES. Like-named read-outs stand apart in the source and are kept apart here.

In the case of `O=C(O)CCCCCC[C@H]1C(=O)CC[C@@H]1COc1ccccc1` [Example 6, 7-((1R,5S)-2-Oxo-5-phenoxymethyl-cyclopentyl)-heptanoic acid], the EC50 at hDP/Gqs5 (setting [4]) and at hDP/Gqs5 (setting [5]) was more than 10 µM in each case.
In the case of `O=C(O)CCC/C=C\C[C@@H]1[C@@H](COc2ccccc2)[C@H](O)C[C@H]1Cl` [Example 8, (Z)-7-((1R,2S,3R,5R)-5-Chloro-3-hydroxy-2-phenoxymethyl-cyclopentyl)-hept-5-enoic acid], the EC50 on hDP/Gqs5 (setting [4]) and at hDP/Gqs5 (setting [5]) was more than 10 µM throughout.
Consider `O=C(O)CCCCCC[C@@H]1[C@@H](COc2ccccc2)[C@H](O)C[C@H]1Cl` [Example 10, 7-((1R,2S,3R,5R)-5-Chloro-3-hydroxy-2-phenoxymethyl-cyclopentyl)-heptanoic acid], for which the EC50 at hDP/Gqs5 (setting [4]) and on hDP/Gqs5 (setting [5]) was more than 10 µM in each case.
Take `O=C(O)CCC/C=C\C[C@@H]1[C@@H](COc2cc(Cl)cc(Cl)c2)[C@H](O)C[C@H]1Cl` [Example 12, (Z)-7-[(1R,2S,3R,5R)-5-Chloro-2-(3,5-dichloro-phenoxymethyl)-3-hydroxy-cyclopentyl]-hept-5-enoic acid]: the EC50 at hDP/Gqs5 (setting [4]) and on hDP/Gqs5 (setting [5]) was more than 10 µM throughout. Moreover, the values for the inhibition in vivo at 0.1 % (in data set [1]; with normotensive dogs [3] (0.1%)) were 19% and 34%, respectively. Moreover, the “maximum OSH score” value with normotensive dogs [2] (0.05%) stood at 0.6; in the data set with normotensive dogs [2] (0.1%), 1.3. Further, the “time of maximum OSH score” value with normotensive dogs [2] (0.05%) and in the data set with normotensive dogs [2] (0.1%) was 6 h in each case. The inhibition in vivo at 0.05 % with normotensive dogs [3] (0.05%) was 30%.
`O=C(O)CCCCCC[C@@H]1[C@@H](COc2cc(Cl)cc(Cl)c2)[C@H](O)C[C@H]1Cl` [Example 14, 7-[(1R,2S,3R,5R)-5-Chloro-2-(3,5-dichloro-phenoxymethyl)-3-hydroxy-cyclopentyl]-heptanoic acid]: the EC50 on hDP/Gqs5 (setting [4]) and at hDP/Gqs5 (setting [5]) was more than 10 µM in each case.

Source of the values: patent US7635716B2, “Substituted cyclopentanes or cyclopentanones as therapeutic agents” (Allergan, Inc., priority 2005, dated 2009).
